Results: PubChem BioAssay AID2060602 (Molecular Pharmacology Branch, DTP, NCI, 2025)

Tested on: 648629-189-R-J1-PDC complex spheroids viability
Experiment: Anticancer human tumor 648629-189-R-J1-PDC patient-derived bladder carcinoma cell line growth inhibition [CLK]
Details: for IC50: curve of first compound; for viability, T/C: stronger effect = lower value
In short: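 Patient-derived tumor cells grown as complex spheroids with HUVEC endothelial cells and mesenchymal stem cells, treated with drug combinations. Concentrations descend in half-log steps from near clinical Cmax, or from 10 microM if Cmax unknown.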
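For viability, T/C in this document: drug exposure lasted seven days before viability readout; 100% = DMSO vehicle control wells.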

`C=CC(=O)Nc1cc(Nc2nccc(-c3cn(C)c4ccccc34)n2)c(OC)cc1N(C)CCN(C)C` + CN1CCN(c2cc(C(=O)Nc3cc4cc(-c5cnn(C)c5)ccc4cn3)ccn2)CC1 was tested, and the IC50 (second compound 0.0316 µM) was > 300 nM, the IC50 (second compound 0.1 µM) was > 300 nM and the IC50 (second compound 0.316 µM) was < 0.949 nM. For the same compound, the IC50 (second compound 1 µM) was < 0.949 nM, the IC50 (second compound 3.16 µM) was < 0.949 nM and the IC50 (second compound 10 µM) was < 0.949 nM. The viability, T/C (second compound 0.0316 µM, first compound 0.000949 µM) was 104%, the viability, T/C (second compound 0.0316 µM, first compound 0.003 µM) was 109% and the viability, T/C (second compound 0.0316 µM, first compound 0.00949 µM) was 112%. It also gave a viability, T/C (second compound 0.0316 µM, first compound 0.03 µM) of 115%, a viability, T/C (second compound 0.0316 µM, first compound 0.0949 µM) of 110% and a viability, T/C (second compound 0.0316 µM, first compound 0.3 µM) of 91.6%. It also gave a viability, T/C (second compound 0.1 µM, first compound 0.000949 µM) of 104%, a viability, T/C (second compound 0.1 µM, first compound 0.003 µM) of 117% and a viability, T/C (second compound 0.1 µM, first compound 0.00949 µM) of 103%. For the same compound, the viability, T/C (second compound 0.1 µM, first compound 0.03 µM) was 103%, the viability, T/C (second compound 0.1 µM, first compound 0.0949 µM) was 99.1% and the viability, T/C (second compound 0.1 µM, first compound 0.3 µM) was 93%. It also gave a viability, T/C (second compound 0.316 µM, first compound 0.000949 µM) of 31.4%, a viability, T/C (second compound 0.316 µM, first compound 0.003 µM) of 42.5% and a viability, T/C (second compound 0.316 µM, first compound 0.00949 µM) of 40.7%. The viability, T/C (second compound 0.316 µM, first compound 0.03 µM) was 35.6%, the viability, T/C (second compound 0.316 µM, first compound 0.0949 µM) was 33.8% and the viability, T/C (second compound 0.316 µM, first compound 0.3 µM) was 23.6%. For the same compound, the viability, T/C (second compound 1 µM, first compound 0.000949 µM) was 0.28%, the viability, T/C (second compound 1 µM, first compound 0.003 µM) was 0.35% and the viability, T/C (second compound 1 µM, first compound 0.00949 µM) was 1.06%. For the same compound, the viability, T/C (second compound 1 µM, first compound 0.03 µM) was 0.49%, the viability, T/C (second compound 1 µM, first compound 0.0949 µM) was 0.24% and the viability, T/C (second compound 1 µM, first compound 0.3 µM) was 0.19%. For the same compound, the viability, T/C (second compound 3.16 µM, first compound 0.000949 µM) was 0.13%, the viability, T/C (second compound 3.16 µM, first compound 0.003 µM) was 0.19% and the viability, T/C (second compound 3.16 µM, first compound 0.00949 µM) was 0.15%. For the same compound, the viability, T/C (second compound 3.16 µM, first compound 0.03 µM) was 0.14%, the viability, T/C (second compound 3.16 µM, first compound 0.0949 µM) was 0.82% and the viability, T/C (second compound 3.16 µM, first compound 0.3 µM) was 0.77%. It also gave a viability, T/C (second compound 10 µM, first compound 0.000949 µM) of 0.24%, a viability, T/C (second compound 10 µM, first compound 0.003 µM) of 2.1% and a viability, T/C (second compound 10 µM, first compound 0.00949 µM) of 0.19%. For the same compound, the viability, T/C (second compound 10 µM, first compound 0.03 µM) was 0.23%, the viability, T/C (second compound 10 µM, first compound 0.0949 µM) was 0.24% and the viability, T/C (second compound 10 µM, first compound 0.3 µM) was 0.21%.

In the case of `CC1(C)CCC(CN2CCN(c3ccc(C(=O)NS(=O)(=O)c4ccc(NCC5CCOCC5)c([N+](=O)[O-])c4)c(Oc4cnc5[nH]ccc5c4)c3)CC2)=C(c2ccc(Cl)cc2)C1` + CN1CCN(c2cc(C(=O)Nc3cc4cc(-c5cnn(C)c5)ccc4cn3)ccn2)CC1, the IC50 (second compound 0.0316 µM) is reported as > 10000 nM, the IC50 (second compound 0.1 µM) is reported as > 10000 nM and the IC50 (second compound 0.316 µM) is reported as < 31.6 nM. For the same compound, the IC50 (second compound 1 µM) was < 31.6 nM, the IC50 (second compound 3.16 µM) was < 31.6 nM and the IC50 (second compound 10 µM) was < 31.6 nM. It also gave a viability, T/C (second compound 0.0316 µM, first compound 0.0316 µM) of 114%, a viability, T/C (second compound 0.0316 µM, first compound 0.1 µM) of 112% and a viability, T/C (second compound 0.0316 µM, first compound 0.316 µM) of 110%. It also gave a viability, T/C (second compound 0.0316 µM, first compound 1 µM) of 97.4%, a viability, T/C (second compound 0.0316 µM, first compound 3.16 µM) of 86.2% and a viability, T/C (second compound 0.0316 µM, first compound 10 µM) of 66.6%. It also gave a viability, T/C (second compound 0.1 µM, first compound 0.0316 µM) of 112%, a viability, T/C (second compound 0.1 µM, first compound 0.1 µM) of 116% and a viability, T/C (second compound 0.1 µM, first compound 0.316 µM) of 97.4%. The viability, T/C (second compound 0.1 µM, first compound 1 µM) was 107%, the viability, T/C (second compound 0.1 µM, first compound 3.16 µM) was 91.8% and the viability, T/C (second compound 0.1 µM, first compound 10 µM) was 56.1%. The viability, T/C (second compound 0.316 µM, first compound 0.0316 µM) was 37%, the viability, T/C (second compound 0.316 µM, first compound 0.1 µM) was 52% and the viability, T/C (second compound 0.316 µM, first compound 0.316 µM) was 41.4%. The viability, T/C (second compound 0.316 µM, first compound 1 µM) was 47.8%, the viability, T/C (second compound 0.316 µM, first compound 3.16 µM) was 35.7% and the viability, T/C (second compound 0.316 µM, first compound 10 µM) was 24.2%. It also gave a viability, T/C (second compound 1 µM, first compound 0.0316 µM) of 0.21%, a viability, T/C (second compound 1 µM, first compound 0.1 µM) of 0.41% and a viability, T/C (second compound 1 µM, first compound 0.316 µM) of 0.38%. The viability, T/C (second compound 1 µM, first compound 1 µM) was 0.27%, the viability, T/C (second compound 1 µM, first compound 3.16 µM) was 0.36% and the viability, T/C (second compound 1 µM, first compound 10 µM) was 1.01%. For the same compound, the viability, T/C (second compound 3.16 µM, first compound 0.0316 µM) was 0.1%, the viability, T/C (second compound 3.16 µM, first compound 0.1 µM) was 0.35% and the viability, T/C (second compound 3.16 µM, first compound 0.316 µM) was 0.14%. It also gave a viability, T/C (second compound 3.16 µM, first compound 1 µM) of 0.13%, a viability, T/C (second compound 3.16 µM, first compound 3.16 µM) of 0.12% and a viability, T/C (second compound 3.16 µM, first compound 10 µM) of 0.7%. For the same compound, the viability, T/C (second compound 10 µM, first compound 0.0316 µM) was 0.13%, the viability, T/C (second compound 10 µM, first compound 0.1 µM) was 0.17% and the viability, T/C (second compound 10 µM, first compound 0.316 µM) was 0.16%. For the same compound, the viability, T/C (second compound 10 µM, first compound 1 µM) was 0.54%, the viability, T/C (second compound 10 µM, first compound 3.16 µM) was 0.17% and the viability, T/C (second compound 10 µM, first compound 10 µM) was 0.16%.
